The record followed here is patent US8754054B2, “Antibacterial compounds, methods of making them, and uses thereof” (Albany Molecular Research, Inc., priority 2010, dated 2014).

Converted amounts (≈) assume the structure as drawn. Where a name gives a salt, the structure may show the parent alone. Read-outs that look alike come from different tables or passages of the source.

For this assay, the system named is MRSA 43300. Kind of assay: Antibacterial activity, NCCLS dilution method (Table 9). It is filed as cell-based, S. aureus. The note with it: Staphylococcus aureus, MRSA, read-out: MRSA 43300 MIC. An excerpt:
NCCLS standards for antimicrobial susceptibility testing using the dilution method were followed. See: Performance Standards for Antimicrobial Susceptibility Testing; Fourteenth Informational Supplement. NCCLS Document M100-S14 (ISBN 1-56238-516-X), 2004. NCCLS, 940 West Valley Road, Suite 1400, Wayne, Pa. 19087-1898 USA, 2004; Methods for Dilution Antimicrobial Susceptibility Tests for Bacteria that Grow Aerobically; Approved Standard—Sixth Edition. NCCLS document M7-A6 (IBSBN 1-56238-486-4), NCCLS, 940 West Valley Road, Suite 1400, Wayne, Pa. 19087-1898 USA, 2003, which are hereby incorporated by reference in their entirety.

[1] abbreviates: MRSA 43300, dilution method, labels marked a tested as a mixture of diastereomers.

In general, MIC refers to the least concentration at which growth counts as inhibited. With `COC(=O)c1c(C)cc2c(c1OC)[C@]1(O)C(=O)c3cc4c(c(OC)c3C(=O)[C@]1(OC)[C@H](O)C2)C(=O)C=C(NC1O[C@@H](C)[C@H](OC)[C@@H](O)[C@H]1OC)C4=O` (mixture of isomers) [Example 5, (6R,6aS,14aR)-Methyl 6,14a-dihydroxy-11-((3R,4R,5R,6S)-4-hydroxy-3,5-dimethoxy-6-methyltetrahydro-2H-pyran-2-ylamino)-1,6a,8-trimethoxy-3-methyl-7,9,12,14-tetraoxo-5,6,6a,7,9,12,14,14a-octahydrobenzo[a]tetracene-2-carboxylate], under setting [1], the MIC came to 2 µg/mL (≈ 2.76 µM).

Turning to `CO[C@@H]1[C@@H](O)[C@@H](OC)C(NC2=CC(=O)c3c(cc4c(c3O)C(=O)[C@]3(OC)[C@H](O)Cc5cc(C)c(C(=O)N(C)C)c(O)c5[C@]3(O)C4=O)C2=O)O[C@H]1C` (mixture of isomers) [Example 16, (6R,6aS,14aR)-1,6,8,14a-Tetrahydroxy-11-((3R,4R,5R,6S)-4-hydroxy-3,5-dimethoxy-6-methyltetrahydro-2H-pyran-2-ylamino)-6a-methoxy-N,N,3-trimethyl-7,9,12,14-tetraoxo-5,6,6a,7,9,12,14,14a-octahydrobenzo[a]tetracene-2-carboxamide], the MIC under setting [1] is 16 µg/mL (≈ 22.5 µM).

Take `CO[C@@H]1[C@@H](O)[C@@H](OC)C(NC2=CC(=O)c3c(cc4c(c3O)C(=O)[C@]3(OC)[C@H](O)Cc5cc(C)c(C(=O)NCc6cccnc6)c(O)c5[C@]3(O)C4=O)C2=O)O[C@H]1C` (mixture of isomers) [Example 17, (6R,6aS,14aR)-1,6,8,14a-Tetrahydroxy-11-((3R,4R,5R,6S)-4-hydroxy-3,5-dimethoxy-6-methyltetrahydro-2H-pyran-2-ylamino)-6a-methoxy-3-methyl-7,9,12,14-tetraoxo-N-(pyridin-3-ylmethyl)-5,6,6a,7,9,12,14,14a-octahydrobenzo[a]tetracene-2-carboxamide hydrochloride]: the MIC turned out to be 32 µg/mL.

For `CO[C@@H]1[C@@H](O)[C@@H](OC)C(NC2=CC(=O)c3c(cc4c(c3O)C(=O)[C@]3(OC)[C@H](O)Cc5cc(C)c(C(=O)NC6CCCCC6)c(O)c5[C@]3(O)C4=O)C2=O)O[C@H]1C` (mixture of isomers) [Example 18, (6R,6aS,14aR)—N-Cyclohexyl-1,6,8,14a-tetrahydroxy-11-((3R,4R,5R,6S)-4-hydroxy-3,5-dimethoxy-6-methyltetrahydro-2H-pyran-2-ylamino)-6a-methoxy-3-methyl-7,9,12,14-tetraoxo-5,6,6a,7,9,12,14,14a-octahydrobenzo[a]tetracene-2-carboxamide], the minimal inhibitory concentration (MIC) under setting [1] came out at 2 µg/mL (≈ 2.62 µM).

With `CNC(=O)c1c(C)cc2c(c1O)[C@]1(O)C(=O)c3cc4c(c(O)c3C(=O)[C@]1(OC)[C@H](O)C2)C(=O)C=C(NC1O[C@@H](C)[C@H](OC)[C@@H](O)[C@H]1OC)C4=O` (mixture of isomers) [Example 19, (6R,6aS,14aR)-1,6,8,14a-Tetrahydroxy-11-((3R,4R,5R,6S)-4-hydroxy-3,5-dimethoxy-6-methyltetrahydro-2H-pyran-2-ylamino)-6a-methoxy-N,3-dimethyl-7,9,12,14-tetraoxo-5,6,6a,7,9,12,14,14a-octahydrobenzo[a]tetracene-2-carboxamide], the minimum inhibitory concentration (MIC) under setting [1] was found to be 2 µg/mL (≈ 2.87 µM).

For `CO[C@@H]1[C@@H](O)[C@@H](OC)C(NC2=CC(=O)c3c(cc4c(c3O)C(=O)[C@]3(OC)[C@H](O)Cc5cc(C)c(C(=O)N6CCCCC6)c(O)c5[C@]3(O)C4=O)C2=O)O[C@H]1C` (mixture of isomers) [Example 21, (6R,6aS,14aR)-1,6,8,14a-Tetrahydroxy-11-((3R,4R,5R,6S)-4-hydroxy-3,5-dimethoxy-6-methyltetrahydro-2H-pyran-2-ylamino)-6a-methoxy-3-methyl-2-(piperidine-1-carbonyl)-6,6a-dihydrobenzo[a]tetracene-7,9,12,14(5H,14aH)-tetraone], the MIC under setting [1] came to 1 µg/mL (≈ 1.33 µM).

`CO[C@@H]1[C@@H](O)[C@@H](OC)C(NC2=CC(=O)c3c(cc4c(c3O)C(=O)[C@]3(OC)[C@H](O)Cc5cc(C)c(C(=O)N6CCCC6)c(O)c5[C@]3(O)C4=O)C2=O)O[C@H]1C` (mixture of isomers) [Example 22, (6R,6aS,14aR)-1,6,8,14a-Tetrahydroxy-11-((3R,4R,5R,6S)-4-hydroxy-3,5-dimethoxy-6-methyltetrahydro-2H-pyran-2-ylamino)-6a-methoxy-3-methyl-2-(pyrrolidine-1-carbonyl)-6,6a-dihydrobenzo[a]tetracene-7,9,12,14(5H,14aH)-tetraone]: the MIC under setting [1] was 1 µg/mL (≈ 1.36 µM).

Regarding `CO[C@@H]1[C@@H](O)[C@@H](OC)C(NC2=CC(=O)c3c(cc4c(c3O)C(=O)[C@]3(OC)[C@H](O)Cc5cc(C)c(C(=O)Nc6ccc(-c7ccccc7)cc6)c(O)c5[C@]3(O)C4=O)C2=O)O[C@H]1C` (mixture of isomers) [Example 23, (6R,6aS,14aR)—N-(Biphenyl-4-yl)-1,6,8,14a-tetrahydroxy-11-((3R,4R,5R,6S)-4-hydroxy-3,5-dimethoxy-6-methyltetrahydro-2H-pyran-2-ylamino)-6a-methoxy-3-methyl-7,9,12,14-tetraoxo-5,6,6a,7,9,12,14,14a-octahydrobenzo[a]tetracene-2-carboxamide], the minimal inhibitory concentration (MIC) under setting [1] came to 4 µg/mL (≈ 4.79 µM).

`CO[C@@H]1[C@@H](O)[C@@H](OC)C(NC2=CC(=O)c3c(cc4c(c3O)C(=O)[C@]3(OC)[C@H](O)Cc5cc(C)c(C(=O)NCCO)c(O)c5[C@]3(O)C4=O)C2=O)O[C@H]1C` (mixture of isomers) [Example 24, (6R,6aS,14aR)-1,6,8,14a-Tetrahydroxy-11-((3R,4R,5R,6S)-4-hydroxy-3,5-dimethoxy-6-methyltetrahydro-2H-pyran-2-ylamino)-N-(2-hydroxyethyl)-6a-methoxy-3-methyl-7,9,12,14-tetraoxo-5,6,6a,7,9,12,14,14a-octahydrobenzo[a]tetracene-2-carboxamide]: under setting [1], the MIC amounted to 32 µg/mL (≈ 44 µM).

`CO[C@@H]1[C@@H](O)[C@@H](OC)C(NC2=CC(=O)c3c(cc4c(c3O)C(=O)[C@]3(OC)[C@H](O)Cc5cc(C)c(C(=O)NCCCc6ccccc6)c(O)c5[C@]3(O)C4=O)C2=O)O[C@H]1C` (mixture of isomers) [Example 25, (6R,6aS,14aR)-1,6,8,14a-Tetrahydroxy-11-((3R,4R,5R,6S)-4-hydroxy-3,5-dimethoxy-6-methyltetrahydro-2H-pyran-2-ylamino)-6a-methoxy-3-methyl-7,9,12,14-tetraoxo-N-(3-phenylpropyl)-5,6,6a,7,9,12,14,14a-octahydrobenzo[a]tetracene-2-carboxamide]: the MIC under setting [1] was in the range of 2 to 4 µg/mL (≈ 2.5 to 4.99 µM).

On to `CO[C@@H]1[C@@H](O)[C@@H](OC)C(NC2=CC(=O)c3c(cc4c(c3O)C(=O)[C@]3(OC)[C@H](O)Cc5cc(C)c(C(=O)NCc6ccc(F)cc6)c(O)c5[C@]3(O)C4=O)C2=O)O[C@H]1C` (mixture of isomers) [Example 26, (6R,6aS,14aR)—N-(4-Fluorobenzyl)-1,6,8,14a-tetrahydroxy-11-((3R,4R,5R,6S)-4-hydroxy-3,5-dimethoxy-6-methyltetrahydro-2H-pyran-2-ylamino)-6a-methoxy-3-methyl-7,9,12,14-tetraoxo-5,6,6a,7,9,12,14,14a-octahydrobenzo[a]tetracene-2-carboxamide], for which the MIC under setting [1] turned out to be 0.5 µg/mL (≈ 0.632 µM).

On to `CO[C@@H]1[C@@H](O)[C@@H](OC)C(NC2=CC(=O)c3c(cc4c(c3O)C(=O)[C@]3(OC)[C@H](O)Cc5cc(C)c(C(=O)NCc6ccc(Cl)cc6)c(O)c5[C@]3(O)C4=O)C2=O)O[C@H]1C` (mixture of isomers) [Example 27, (6R,6aS,14aR)—N-(4-Chlorobenzyl)-1,6,8,14a-tetrahydroxy-11-((3R,4R,5R,6S)-4-hydroxy-3,5-dimethoxy-6-methyltetrahydro-2H-pyran-2-ylamino)-6a-methoxy-3-methyl-7,9,12,14-tetraoxo-5,6,6a,7,9,12,14,14a-octahydrobenzo[a]tetracene-2-carboxamide], for which the MIC under setting [1] is 8 µg/mL (≈ 9.91 µM).

`CO[C@@H]1[C@@H](O)[C@@H](OC)C(NC2=CC(=O)c3c(cc4c(c3O)C(=O)[C@]3(OC)[C@H](O)Cc5cc(C)c(C(=O)NCc6ccccc6)c(O)c5[C@]3(O)C4=O)C2=O)O[C@H]1C` (mixture of isomers) [Example 30, (6R,6aS,14aR)—N-Benzyl-1,6,8,14a-tetrahydroxy-11-((3R,4R,5R,6S)-4-hydroxy-3,5-dimethoxy-6-methyltetrahydro-2H-pyran-2-ylamino)-6a-methoxy-3-methyl-7,9,12,14-tetraoxo-5,6,6a,7,9,12,14,14a-octahydrobenzo[a]tetracene-2-carboxamide]: under setting [1], the minimum inhibitory concentration (MIC) lay in the range of 0.12 to 0.5 µg/mL (≈ 0.155 to 0.647 µM).

With `CO[C@@H]1[C@@H](O)[C@@H](OC)C(NC2=CC(=O)c3c(cc4c(c3O)C(=O)[C@]3(OC)[C@H](O)Cc5cc(C)c(C(=O)NC(C)C)c(O)c5[C@]3(O)C4=O)C2=O)O[C@H]1C` (mixture of isomers) [Example 31, (6R,6aS,14aR)-1,6,8,14a-Tetrahydroxy-11-((3R,4R,5R,6S)-4-hydroxy-3,5-dimethoxy-6-methyltetrahydro-2H-pyran-2-ylamino)-N-isopropyl-6a-methoxy-3-methyl-7,9,12,14-tetraoxo-5,6,6a,7,9,12,14,14a-octahydrobenzo[a]tetracene-2-carboxamide], the minimum inhibitory concentration (MIC) under setting [1] was 2 µg/mL (≈ 2.76 µM).

`CO[C@@H]1[C@@H](O)[C@@H](OC)C(NC2=CC(=O)c3c(cc4c(c3O)C(=O)[C@]3(OC)[C@H](O)Cc5cc(C)c(C(=O)OCc6ccccc6)c(O)c5[C@]3(O)C4=O)C2=O)O[C@H]1C` (mixture of isomers) [Example 37, (6R,6aS,14aR)-Benzyl 1,6,8,14a-tetrahydroxy-11-((3R,4R,5R,6S)-4-hydroxy-3,5-dimethoxy-6-methyltetrahydro-2H-pyran-2-ylamino)-6a-methoxy-3-methyl-7,9,12,14-tetraoxo-5,6,6a,7,9,12,14,14a-octahydrobenzo[a]tetracene-2-carboxylate]: the MIC under setting [1] worked out at 0.25 µg/mL (≈ 0.323 µM).

Regarding `COC(=O)c1c(C)cc2c(c1O)[C@]1(O)C(=O)c3cc4c(c(O)c3C(=O)[C@]1(OC)[C@H](O)C2)C(=O)C=C(N[C@H]1O[C@@H](C)[C@H](OC)C(=NO)[C@H]1OC)C4=O` (single isomer, unassigned) [Example 49], the MIC under setting [1] came out at 0.06 µg/mL (≈ 0.0844 µM).
